US11285227B2, “Trifunctional constructs with tunablepharmacokinetics useful in imaging and anti-tumor therapies” (CORNELL UNIVERSITY, priority 2017, dated 2022)
Where two headings read alike, the source gives them in different places. Marks after values point to notes of the source that are not given here. Blank lines part the entries; values can stand above or below the compound they belong to.

Key:
PSMA on LNCaP cells = PSMA on LNCaP cells (Homo sapiens, UniProt Q04609); test: Multi-concentration competitive binding assay against 99mTc-MIP-1427 (Section 1.3); design: host or cells: LNCaP
Sequence of PSMA on LNCaP cells (Q04609 whole entry): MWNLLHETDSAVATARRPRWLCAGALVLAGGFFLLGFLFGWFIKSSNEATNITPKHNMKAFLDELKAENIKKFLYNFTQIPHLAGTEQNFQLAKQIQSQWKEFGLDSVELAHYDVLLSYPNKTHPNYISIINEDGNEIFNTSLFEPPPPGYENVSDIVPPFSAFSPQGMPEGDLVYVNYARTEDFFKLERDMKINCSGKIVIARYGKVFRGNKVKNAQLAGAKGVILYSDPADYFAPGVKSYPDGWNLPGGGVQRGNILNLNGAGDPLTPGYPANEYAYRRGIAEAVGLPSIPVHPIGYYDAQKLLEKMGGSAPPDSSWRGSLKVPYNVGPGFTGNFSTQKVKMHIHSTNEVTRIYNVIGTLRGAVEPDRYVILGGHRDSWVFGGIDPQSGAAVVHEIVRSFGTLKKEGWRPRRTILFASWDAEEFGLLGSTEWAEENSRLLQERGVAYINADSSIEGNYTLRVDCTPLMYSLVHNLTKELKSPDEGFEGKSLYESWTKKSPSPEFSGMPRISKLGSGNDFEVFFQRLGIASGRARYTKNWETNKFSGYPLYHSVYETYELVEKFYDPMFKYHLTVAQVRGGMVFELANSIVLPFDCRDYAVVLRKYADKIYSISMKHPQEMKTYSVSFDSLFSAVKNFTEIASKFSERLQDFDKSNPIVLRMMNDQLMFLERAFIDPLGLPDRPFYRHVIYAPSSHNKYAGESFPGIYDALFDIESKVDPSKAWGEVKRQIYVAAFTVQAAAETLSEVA
Procedure: Cell Culture: The PSMA expressing human prostate cancer cell line, LNCaP, was obtained from the American Type Culture Collection. Cell culture supplies were obtained from Invitrogen unless otherwise noted. LNCaP cells were maintained in RPMI-1640 medium supplemented with 10% fetal bovine serum (Hyclone), 4 mM L-glutamine, 1 mM sodium pyruvate, 10 mM N-2-hydroxyethylpiperazine-N-2-ethanesulfonic acid (HEPES), 2.5 mg/mL D-glucose, and 50 μg/mL gentamicin in a humidified incubator at 37° C./5% CO2. Cells were removed from flasks for passage or for transfer to 12-well assay plates by incubating them with 0.25% trypsin/ethylenediaminetetraacetic acid (EDTA).
In vitro determination of IC50: IC50 values of the non-labeled, metal-free ligands were determined by screening in a multi-concentration competitive binding assay against ^99mTc-((7S,12S,16S)-1-(1-(carboxymethyl)-1H-imidazol-2-yl)-2-((1-(carboxymethyl)-1H-imidazol-2-yl)methyl)-9,14-dioxo-2,8,13,15-tetraazaoctadecane-7,12,16,18-tetracarboxylic acid technetium tricarbonyl complex) (^99mTc-MIP-1427) for binding to PSMA on LNCaP cells, according to previously described methods [18,19] with small modifications. Briefly, LNCaP cells were plated 48 h prior to the experiment to achieve a density of approximately 5×10^5 cells/well (in triplicate) in RPMI-1640 medium supplemented with 0.25% bovine serum albumin. The cells were incubated for 2 h with 1 nM ^99mTc-MIP-1427 in serum-free RPMI-1640 medium in the presence of 0.001-10,000 nM test compounds. Radioactive incubation media was then removed by pipette and the cells were washed twice using 1 mL ice-cold PBS 1× solution. Cells were harvested from the plates following treatment with 1 mL 1M NaOH and transferred to tubes for radioactive counting using a 2470 Wizard^2 Automatic Gamma Counter (Perkin Elmer). Standard solutions (10% of activity added to each well) were prepared to enable decay correction. IC50 values were determined by fitting the data points to a sigmoidal Hills1 curve in Origin software.

[1] = test system: LNCaP xenograft tumor-bearing mice; test: Biodistribution studies of 177Lu-labeled ligands in LNCaP xenograft mice; type: in vivo; conditions: for Max. Tumor Uptake: corresponding 177Lu-labeled compound
Procedure: (§1) Inoculation of mice with xenografts: All animal studies were approved by the Institutional Animal Care and Use Committee of Weill Cornell Medicine and were undertaken in accordance with the guidelines set forth by the USPHS Policy on Humane Care and Use of Laboratory Animals. Animals were housed under standard conditions in approved facilities with 12 h light/dark cycles. Food and water was provided ad libitum throughout the course of the studies. Hairless male nu/nu mice were purchased from the Jackson Laboratory. For inoculation in mice, LNCaP cells were suspended at 4×10^7 cells/mL in a 1:1 mixture of PBS:Matrigel (BD Biosciences). Each mouse was injected in the left flank with 0.25 mL of the cell suspension. The mice were imaged when the tumors reached approximately 200-400 mm^3, while biodistributions were conducted when tumors were in the range 100-400 mm^3.
Biodistribution studies of ^177Lu-labeled ligands in LNCaP xenograft mice: LNCaP xenograft tumor-bearing mice (5 per time point per compound) were injected intravenously with a bolus injection of 348-851 kBq (9.4-23 μCi) and 37-50 ng (23-25 pmol) of each ligand. The mice were sacrificed at 4, 24 and 96 h post injection. A blood sample was removed, and a full biodistribution study was conducted on the following organs (with contents): heart, lungs, liver, small intestine, large intestine, stomach, spleen, pancreas, kidneys, muscle, bone and tumor. Tissues were weighed and counted on a 2470 Wizard^2 Automatic Gamma Counter (Perkin Elmer). Counts were corrected for decay and for activity injected, and tissue uptake was expressed as percent injected dose per gram (% ID/g). Standard error measurement was calculated for each data point.

[2] = C57BL/6 mice, tail vein, 10-50 kBq; 15 min, 1 h, 5 h
Procedure: C57BL/6 mice were injected via tail vein with 10-50 kBq of each radiometal complex and were sacrificed after 15 min, 1 h, or 5 h.

[3] = test system: LNCaP xenograft tumor-bearing mice; test: µPET/CT imaging of 66Ga-RPS ligands in LNCaP xenograft mice; type: in vivo
Procedure: as §1
Imaging of ^66Ga-RPS ligands in LNCaP xenograft mice: LNCaP xenograft tumor-bearing mice (2-3 per compound) injected intravenously with a bolus injection of 0.56-5.4 MBq (15-145 μCi) of the ^66Ga-labeled ligand. The specific activity of the tracers was in the range 14.8-47 MBq/pmol (0.4-1.27 mCi/pmol). The mice were imaged using μPET/CT (Inveon™; Siemens Medical Solutions, Inc.) at 1, 3, 6 and 24 h post-injection following inhalation anesthetization with isoflurane. Total acquisition time was 30 min for the 1 h, 3 h and 6 h images, and 60 min for 24 h time point. A CT scan was obtained immediately before the acquisition for both anatomical co-registration and attenuation correction. Images were reconstructed using the Inveon™ software supplied by the vendor. Image-derived tumor and kidney uptake was estimated by comparison to a 10% injected dose per cubic mm (% ID/mm^3) standard introduced into the imaging field of view. The standard was prepared by dilution of 10% of the injected activity to 1 mL with saline. Volumes of interest (VOIs) were drawn with the aid of the CT and confirmed by PET. The contents of the VOIs were integrated and the calculated counts were converted to % ID/mm^3 by direct comparison to the aforementioned standard following correction for activity injected.

[4] = test system: LNCaP xenograft tumor-bearing mice; test: Dosimetry (dose integrals from 177Lu biodistribution); type: in vivo
Procedure: Dosimetry: The dosimetry was calculated assuming a linear interpolation between the three time points. The average injected dose per organ was calculated by using the average of the activity and organ weights of the mice at that time point. Intermediate time points at every 4 hours were generated using the linear approximation and all time points were corrected for decay during the time interval between points. These curves were integrated using a trapezoidal approximation and the sum used to determine the residence time.

[5] = non-labeled, metal-free ligands, competitive binding in LNCaP cells vs 1 nM 99mTc-MIP-1427, 2 h, read-out: IC50

IC50 (PSMA on LNCaP cells; [5]): 6.6 ± 0.7 nM | Max. Tumor Uptake ([1]; a = 4 h p.i.): 14.4 ± 2.5 % ID/g
Compound: O=C(O)CCC(NC(=O)NC(CCCCNC(=O)C(Cc1ccc2ccccc2c1)NC(=O)C1CCC(CNC(=O)CN2CCN(CC(=O)O)CCN(CC(=O)O)CCN(CC(=O)O)CC2)CC1)C(=O)O)C(=O)O (stereo not shown) [PSMA-617, reference compound]

Compound: O=C(O)CC[C@H](NC(=O)N[C@@H](CCCCNC(=O)Nc1cccc(-c2cn(CCOCCOCCOCCOCCC(=O)N[C@@H](CCCCNC(=S)Nc3ccc(CC4CN(CC(=O)O)CCN(CC(=O)O)CCN(CC(=O)O)CCN4CC(=O)O)cc3)C(=O)N[C@@H](CCCCNC(=O)Cc3ccc(I)cc3)C(=O)O)nn2)c1)C(=O)O)C(=O)O (stereo partly drawn) [RPS-061, (((1S)-1-carboxy-5-(3-(3-(1-((17S,20S)-20-carboxy-27-(4-iodophenyl)-15,18,26-trioxo-17-(4-(3-(4-((1,4,7,10-tetrakis(carboxymethyl)-1,4,7,10-tetraazacyclododecan-2-yl)methyl)phenyl)thioureido)butyl)-3,6,9,12-tetraoxa-16,19,25-triazaheptacosyl)-1H-1,2,3-triazol-4-yl)phenyl)ureido)pentyl)carbamoyl)-L-glutamic acid]
IC50 (PSMA on LNCaP cells; [5]): 4.1 nM | Max. Tumor Uptake ([1]; a = 4 h p.i.): 20.4 % ID/g

Compound: O=C(O)CC[C@H](NC(=O)N[C@@H](CCCCNC(=O)Nc1cccc(-c2cn(CCOCCOCCOCCC(=O)N[C@@H](CCCCNC(=S)Nc3ccc(CC4CN(CC(=O)O)CCN(CC(=O)O)CCN(CC(=O)O)CCN4CC(=O)O)cc3)C(=O)N[C@@H](CCCCNC(=O)Cc3ccc(I)cc3)C(=O)O)nn2)c1)C(=O)O)C(=O)O (stereo partly drawn) [RPS-063, (((1S)-1-carboxy-5-(3-(3-(1-((14S,17S)-17-carboxy-24-(4-iodophenyl)-12,15,23-trioxo-14-(4-(3-(4-((1,4,7,10-tetrakis(carboxymethyl)-1,4,7,10-tetraazacyclododecan-2-yl)methyl)phenyl)thioureido)butyl)-3,6,9-trioxa-13,16,22-triazatetracosyl)-1H-1,2,3-triazol-4-yl)phenyl)ureido)pentyl)carbamoyl)-L-glutamic acid]
IC50 (PSMA on LNCaP cells): 1.5 ± 0.3 nM | Max. Tumor Uptake ([1]; a = 4 h p.i.): 30.0 % ID/g

Compound: O=C(O)CC[C@H](NC(=O)N[C@@H](CCCCNC(=O)Nc1cccc(-c2cn(CCOCCOCCOCCOCCOCCOCCOCCOCCC(=O)N[C@@H](CCCCNC(=S)Nc3ccc(CC4CN(CC(=O)O)CCN(CC(=O)O)CCN(CC(=O)O)CCN4CC(=O)O)cc3)C(=O)N[C@@H](CCCCNC(=O)Cc3ccc(I)cc3)C(=O)O)nn2)c1)C(=O)O)C(=O)O (stereo partly drawn) [RPS-066, (((1S)-1-carboxy-5-(3-(3-(1-((29S,32S)-32-carboxy-39-(4-iodophenyl)-27,30,38-trioxo-29-(4-(3-(4-((1,4,7,10-tetrakis(carboxymethyl)-1,4,7,10-tetraazacyclododecan-2-yl)methyl)phenyl)thioureido)butyl)-3,6,9,12,15,18,21,24-octaoxa-28,31,37-triazanonatriacontyl)-1H-1,2,3-triazol-4-yl)phenyl)ureido)pentyl)carbamoyl)-L-glutamic acid]
IC50 (PSMA on LNCaP cells; [5]): 5.2 nM | Max. Tumor Uptake ([1]; a = 4 h p.i.): 18.7 % ID/g

IC50 (PSMA on LNCaP cells; [5]): 2.1 ± 0.1 nM | Max. Tumor Uptake ([1]; b = 24 h p.i.): 26.9 ± 2.0^b % ID/g
Compound: O=C(O)CC[C@H](NC(=O)N[C@@H](CCCCNC(=O)Nc1cccc(-c2cnnn2CC(=O)N[C@@H](CCCCNC(=S)Nc2ccc(CC3CN(CC(=O)O)CCN(CC(=O)O)CCN(CC(=O)O)CCN3CC(=O)O)cc2)C(=O)N[C@@H](CCCCNC(=O)Cc2ccc(I)cc2)C(=O)O)c1)C(=O)O)C(=O)O (stereo partly drawn) [RPS-068, (((1S)-1-carboxy-5-(3-(3-(1-(2-(((2S)-1-(((S)-1-carboxy-5-(2-(4-iodophenyl)acetamido)pentyl)amino)-1-oxo-6-(3-(4-((1,4,7,10-tetrakis(carboxymethyl)-1,4,7,10-tetraazacyclododecan-2-yl)methyl)phenyl)thioureido)hexan-2-yl)amino)-2-oxoethyl)-1H-1,2,3-triazol-5-yl)phenyl)ureido)pentyl)carbamoyl)-L-glutamic acid]

Compound: O=C(O)CC[C@H](NC(=O)N[C@@H](CCCCNC(=O)Nc1cccc(-c2cn(CCOCCOCCOCCOCCOCCOCCC(=O)N[C@@H](CCCCNC(=S)Nc3ccc(CC4CN(CC(=O)O)CCN(CC(=O)O)CCN(CC(=O)O)CCN4CC(=O)O)cc3)C(=O)N[C@@H](CCCCNC(=O)Cc3ccc(I)cc3)C(=O)O)nn2)c1)C(=O)O)C(=O)O (stereo partly drawn) [RPS-069, (((1S)-1-carboxy-5-(3-(3-(1-((23S,26S)-26-carboxy-33-(4-iodophenyl)-21,24,32-trioxo-23-(4-(3-(4-((1,4,7,10-tetrakis(carboxymethyl)-1,4,7,10-tetraazacyclododecan-2-yl)methyl)phenyl)thioureido)butyl)-3,6,9,12,15,18-hexaoxa-22,25,31-triazatritriacontyl)-1H-1,2,3-triazol-4-yl)phenyl)ureido)pentyl)carbamoyl)-L-glutamic acid]
IC50 (PSMA on LNCaP cells; [5]): 3.8 nM | Max. Tumor Uptake ([1]; a = 4 h p.i.): 17.0 % ID/g

Compound: O=C([O-])CN1CCN(CC(=O)[O-])CCN(CC(=O)[O-])CCN(CC(=O)[O-])CC1.[225Ac+3] [[^225Ac(DOTA)]^−, reference compound]
Biodistribution profile (clearance) [2]: appeared to clear more rapidly through the urine

Compound: O=C([O-])c1cccc(CN2CCOCCOCCN(Cc3cccc(C(=O)[O-])n3)CCOCCOCC2)n1.[225Ac+3] [[^225Ac(macropa)]^+]
Biodistribution profile (clearance) [2]: rapidly cleared from mice, with very little activity measured in blood by 1 h post injection | Organ accumulation / in vivo stability of the complex [2]: did not accumulate in any organ

Tumor uptake (image-derived) ([3]; 24 h post injection): 1.1±0.4 % ID/cm^3 | Maximum tumor uptake (image-derived) ([3]; maximum at 1 h post injection): 3.1±0.4 % ID/cm^3
Compound: O=C(O)CCC(NC(=O)NC(CCCCNC(=O)C(Cc1ccc2ccccc2c1)NC(=O)C1CCC(CNC(=O)CN2CCN(CC(=O)O)CCN(CC(=O)O)CCN(CC(=O)O)CC2)CC1)C(=O)O)C(=O)O (stereo not shown) [^66Ga-PSMA-617, metal not drawn, reference compound]

Kidney uptake (image-derived) ([3]; 24 h post injection): 1.9±0.3 % ID/cm^3 | Maximum tumor uptake (image-derived) ([3]; maximum at 3 h post injection): 9.7±2.0 % ID/cm^3
Compound: O=C(O)CCC(NC(=O)NC(CCCCNC(=O)Nc1cccc(-c2cnnn2CC(=O)NC(CCCCNC(=S)Nc2ccc(CC3CN(CC(=O)O)CCN(CC(=O)O)CCN(CC(=O)O)CCN3CC(=O)O)cc2)C(=O)NC(CCCCNC(=O)Cc2ccc(I)cc2)C(=O)O)c1)C(=O)O)C(=O)O (stereo not shown) [^66Ga-RPS-068, metal not drawn]

Ratio of tumor dose integral to kidney dose integral ([4]; over the 96 h): 1.95 | Kidney uptake ([1]; 4 h p.i.): 14.1±3.1 % ID/g | Tumor uptake ([1]; 4 h p.i.): 14.4±1.1 % ID/g | Tumor uptake ([1]; 96 h p.i.): 3.5±0.3 % ID/g | Tumor-to-kidney ratio ([1]; 96 h p.i.): 14.39±2.2
Compound: O=C(O)CCC(NC(=O)NC(CCCCNC(=O)C(Cc1ccc2ccccc2c1)NC(=O)C1CCC(CNC(=O)CN2CCN(CC(=O)O)CCN(CC(=O)O)CCN(CC(=O)O)CC2)CC1)C(=O)O)C(=O)O (stereo not shown) [^177Lu-PSMA-617, metal not drawn, reference compound]

Dose integral in the tumor relative to 177Lu-PSMA-617 ([4]; over 96 h): nearly four times higher | Tumor uptake (in words) ([1]; 4-96 h p.i.): high and remained high | Blood activity (in words) ([1]; 4 h p.i.): highest blood activity | Tumor uptake ([1]; 4 h p.i.): 21.8±2.8 % ID/g | Kidney uptake ([1]; 24 h p.i.): 87.3±6.7 % ID/g | Tumor uptake ([1]; 96 h p.i.): 14.9±1.5 % ID/g | Tumor-to-kidney ratio ([1]; 96 h p.i.): 1.56±0.23
Compound: O=C(O)CCC(NC(=O)NC(CCCCNC(=O)Nc1cccc(-c2cnnn2CC(=O)NC(CCCCNC(=S)Nc2ccc(CC3CN(CC(=O)O)CCN(CC(=O)O)CCN(CC(=O)O)CCN3CC(=O)O)cc2)C(=O)NC(CCCCNC(=O)Cc2ccc(I)cc2)C(=O)O)c1)C(=O)O)C(=O)O (stereo not shown) [^177Lu-RPS-068, metal not drawn]
